Patent US20090155387A1, “STABLE PHARMACEUTICAL COMPOSITION COMPRISING BETA-LACTAM ANTIBIOTIC AND ION-CHELATING AGENT” (priority 2006, published 2009)
Values belong to the compound of their own block, whether it stands above or below them.

Test: Amounts of β-lactam antibiotic, β-lactamase inhibitor and aminoglycoside antibiotic in solution over time (reverse-phase LC/HPLC)
Assay type: physicochemical
Experimental: The amounts of β-lactam antibiotics and β-lactamase inhibitor were determined using C18 reverse-phase LC and UV-VIS detector (Tianjin […] Co., Ltd., analysis method No. HM-K-03). The content of aminoglycoside antibiotics was measured using reverse-phase HPLC and evaporation-light-scattering detector (ELSD detector) (Tianjin […] Co., Ltd., analysis method No. HM-K-08). The amount of antibiotic component at each time point was expressed as a percentage with respect to the amount at the initial time. The relative amount of each antibiotic component in the composition at each time point was expressed as peak area ratio with respect to the corresponding peak area of an external standard.

[1] = in Example 5 solution, pH 6.75, room temperature, 0 h
[2] = in Example 5 solution, pH 6.75, room temperature, 1 h
[3] = in Example 5 solution, pH 6.75, room temperature, 2 h
[4] = in Example 5 solution, pH 6.75, room temperature, 4 h

- amount (percentage of initial amount) (in Example 4 solution (no EDTA), pH 6.75, room temperature, 0 h): 101.4%
- amount (percentage of initial amount) (in Example 4 solution (no EDTA), pH 6.75, room temperature, 1 h): 98.66%
- amount (percentage of initial amount) (in Example 4 solution (no EDTA), pH 6.75, room temperature, 2 h): 98.79%
- amount (percentage of initial amount) (in Example 4 solution (no EDTA), pH 6.75, room temperature, 4 h): 101.5%
- amount (percentage of initial amount) (in Example 4 solution (no EDTA), pH 6.75, room temperature, 6 h): 107.4%
- amount (percentage of initial amount) [1]: 101.4%
- amount (percentage of initial amount) [2]: 98.66%
- amount (percentage of initial amount) [3]: 98.79%
- amount (percentage of initial amount) [4]: 101.5%
- amount (percentage of initial amount) (in Example 5 solution, pH 6.75, room temperature, 6 h): 107.4%
- amount (percentage of initial amount) (in Example 6 solution, pH 6.5, room temperature, 0 h): 110.4%
- amount (percentage of initial amount) (in Example 6 solution, pH 6.5, room temperature, 1 h): 99.48%
- amount (percentage of initial amount) (in Example 6 solution, pH 6.5, room temperature, 2 h): 101.3%
- amount (percentage of initial amount) (in Example 6 solution, pH 6.5, room temperature, 4 h): 98.66%
- amount (percentage of initial amount) (in Example 6 solution, pH 6.5, room temperature, 6 h): 98.02%
- amount (percentage of initial amount) (in Example 6 solution, pH 6.5, room temperature, 8 h): 99.30%
- amount (percentage of initial amount) (in Example 12 solution (no aminoglycoside) from freeze-dried powder stored 7 days at 0° C., redissolved, 0 h): 100.2%
- amount (percentage of initial amount) (in Example 12 solution (no aminoglycoside) from freeze-dried powder stored 7 days at 0° C., redissolved, 1 h): 99.0%
- amount (percentage of initial amount) (in Example 12 solution (no aminoglycoside) from freeze-dried powder stored 7 days at 0° C., redissolved, 2 h): 99.0%
- amount (percentage of initial amount) (in Example 12 solution (no aminoglycoside) from freeze-dried powder stored 7 days at 0° C., redissolved, 4 h): 96.2%
- amount (percentage of initial amount) (in Example 12 solution (no aminoglycoside) from freeze-dried powder stored 7 days at 0° C., redissolved, 6 h): 94.5%
- amount (percentage of initial amount) (in Example 12 solution (no aminoglycoside) from freeze-dried powder stored 7 days at 0° C., redissolved, 8 h): 95.3%
- amount (percentage of initial amount) (in Example 13 solution (Example 12 solution + etimicin sulfate), 0 h): 100.2%
- amount (percentage of initial amount) (in Example 13 solution (Example 12 solution + etimicin sulfate), 1 h): 99.0%
- amount (percentage of initial amount) (in Example 13 solution (Example 12 solution + etimicin sulfate), 2 h): 99.0%
- amount (percentage of initial amount) (in Example 13 solution (Example 12 solution + etimicin sulfate), 4 h): 96.2%
- amount (percentage of initial amount) (in Example 13 solution (Example 12 solution + etimicin sulfate), 6 h): 94.5%
- amount (percentage of initial amount) (in Example 13 solution (Example 12 solution + etimicin sulfate), 8 h): 95.3%
- amount (percentage of initial amount) (in Example 14 solution, pH 6.5, room temperature, 0 h): 98.42%
- amount (percentage of initial amount) (in Example 14 solution, pH 6.5, room temperature, 1 h): 97.39%
- amount (percentage of initial amount) (in Example 14 solution, pH 6.5, room temperature, 2 h): 97.46%
- amount (percentage of initial amount) (in Example 14 solution, pH 6.5, room temperature, 4 h): 94.70%
- amount (percentage of initial amount) (in Example 14 solution, pH 6.5, room temperature, 6 h): 93.02%
- amount (percentage of initial amount) (in Example 15 solution, pH 6.5, room temperature, 0 h): 101.7%
- amount (percentage of initial amount) (in Example 15 solution, pH 6.5, room temperature, 1 h): 96.06%
- amount (percentage of initial amount) (in Example 15 solution, pH 6.5, room temperature, 2 h): 95.72%
- amount (percentage of initial amount) (in Example 15 solution, pH 6.5, room temperature, 4 h): 97.32%
- amount (percentage of initial amount) (in Example 15 solution, pH 6.5, room temperature, 6 h): 69.95%
- amount (percentage of initial amount) (in Example 16 solution, pH 6.5, room temperature, 0 h): 102.9%
- amount (percentage of initial amount) (in Example 16 solution, pH 6.5, room temperature, 1 h): 108.6%
- amount (percentage of initial amount) (in Example 16 solution, pH 6.5, room temperature, 2 h): 104.6%
- amount (percentage of initial amount) (in Example 16 solution, pH 6.5, room temperature, 4 h): 99.50%
- amount (percentage of initial amount) (in Example 16 solution, pH 6.5, room temperature, 6 h): 98.91%
- amount (percentage of initial amount) (in Example 16 solution, pH 6.5, room temperature, 8 h): 103.4%
- amount (percentage of initial amount) (in Example 19 solution, pH 6.75, room temperature, 0 h): 95.91%
- amount (percentage of initial amount) (in Example 19 solution, pH 6.75, room temperature, 1 h): 97.01%
- amount (percentage of initial amount) (in Example 19 solution, pH 6.75, room temperature, 2 h): 95.94%
- amount (percentage of initial amount) (in Example 19 solution, pH 6.75, room temperature, 4 h): 95.86%
- amount (percentage of initial amount) (in Example 19 solution, pH 6.75, room temperature, 6 h): 95.41%
- amount (percentage of initial amount) (in Example 19 solution, pH 6.75, room temperature, 8 h): 95.22%
- amount (percentage of initial amount) (in Example 20 solution (no EDTA), pH 6.75, room temperature, 0 h): 92.30%
- amount (percentage of initial amount) (in Example 20 solution (no EDTA), pH 6.75, room temperature, 1 h): 94.80%
- amount (percentage of initial amount) (in Example 20 solution (no EDTA), pH 6.75, room temperature, 2 h): 94.06%
- amount (percentage of initial amount) (in Example 20 solution (no EDTA), pH 6.75, room temperature, 4 h): 94.12%
- amount (percentage of initial amount) (in Example 20 solution (no EDTA), pH 6.75, room temperature, 6 h): 93.15%
- amount (percentage of initial amount) (in Example 20 solution (no EDTA), pH 6.75, room temperature, 8 h): 94.50%
- amount (percentage of initial amount) (in Example 21 solution, pH 6.75, room temperature (22° C.), 0 h): 92.44%
- amount (percentage of initial amount) (in Example 21 solution, pH 6.75, room temperature (22° C.), 1 h): 104.6%
- amount (percentage of initial amount) (in Example 21 solution, pH 6.75, room temperature (22° C.), 2 h): 102.4%
- amount (percentage of initial amount) (in Example 21 solution, pH 6.75, room temperature (22° C.), 4 h): 97.95%
- amount (percentage of initial amount) (in Example 21 solution, pH 6.75, room temperature (22° C.), 6 h): 98.90%
- amount (percentage of initial amount) (in Example 21 solution, pH 6.75, room temperature (22° C.), 8 h): 102.9%
Compound: CCN1CCN(C(=O)N[C@@H](C(=O)N[C@@H]2C(=O)N3C(C(=O)O)=C(CSc4nnnn4C)CS[C@H]23)c2ccc(O)cc2)C(=O)C1=O [Cefoperazone sodium]

- amount (percentage of initial amount) (in Example 7 solution, pH 6.75, room temperature, 0 h): 97.01%
- amount (percentage of initial amount) (in Example 7 solution, pH 6.75, room temperature, 1 h): 100.3%
- amount (percentage of initial amount) (in Example 7 solution, pH 6.75, room temperature, 2 h): 96.40%
- amount (percentage of initial amount) (in Example 7 solution, pH 6.75, room temperature, 4 h): 99.01%
- amount (percentage of initial amount) (in Example 7 solution, pH 6.75, room temperature, 6 h): 98.91%
- amount (percentage of initial amount) (in Example 7 solution, pH 6.75, room temperature, 8 h): 99.53%
- amount (percentage of initial amount) (in Example 8 solution from freeze-dried powder stored 7 days at 0° C., redissolved in injectable water, 0 h): 98.75%
- amount (percentage of initial amount) (in Example 8 solution from freeze-dried powder stored 7 days at 0° C., redissolved in injectable water, 1 h): 100.1%
- amount (percentage of initial amount) (in Example 8 solution from freeze-dried powder stored 7 days at 0° C., redissolved in injectable water, 2 h): 99.97%
- amount (percentage of initial amount) (in Example 8 solution from freeze-dried powder stored 7 days at 0° C., redissolved in injectable water, 4 h): 98.87%
- amount (percentage of initial amount) (in Example 8 solution from freeze-dried powder stored 7 days at 0° C., redissolved in injectable water, 6 h): 99.27%
- amount (percentage of initial amount) (in Example 8 solution from freeze-dried powder stored 7 days at 0° C., redissolved in injectable water, 8 h): 100.5%
- amount (percentage of initial amount) (in Example 9 solution from freeze-dried powder stored 7 days at 0° C., redissolved in injectable water, 0 h): 92.24%
- amount (percentage of initial amount) (in Example 9 solution from freeze-dried powder stored 7 days at 0° C., redissolved in injectable water, 1 h): 96.28%
- amount (percentage of initial amount) (in Example 9 solution from freeze-dried powder stored 7 days at 0° C., redissolved in injectable water, 2 h): 94.97%
- amount (percentage of initial amount) (in Example 9 solution from freeze-dried powder stored 7 days at 0° C., redissolved in injectable water, 4 h): 94.20%
- amount (percentage of initial amount) (in Example 9 solution from freeze-dried powder stored 7 days at 0° C., redissolved in injectable water, 6 h): 97.91%
- amount (percentage of initial amount) (in Example 9 solution from freeze-dried powder stored 7 days at 0° C., redissolved in injectable water, 8 h): 93.23%
- amount (percentage of initial amount) (in Example 24 solution, pH 6.75, room temperature, 0 h): 110.2%
- amount (percentage of initial amount) (in Example 24 solution, pH 6.75, room temperature, 1 h): 117.6%
- amount (percentage of initial amount) (in Example 24 solution, pH 6.75, room temperature, 2 h): 119.4%
- amount (percentage of initial amount) (in Example 24 solution, pH 6.75, room temperature, 4 h): 111.5%
- amount (percentage of initial amount) (in Example 24 solution, pH 6.75, room temperature, 6 h): 113.4%
- amount (percentage of initial amount) (in Example 24 solution, pH 6.75, room temperature, 8 h): 120.0%
Compound: CO/N=C(\C(=O)N[C@@H]1C(=O)N2C(C(=O)O)=C(CSc3nc(=O)c(=O)[nH]n3C)CS[C@H]12)c1csc(N)n1 [Ceftriaxone sodium]

- amount (percentage of initial amount) [1]: 101.7%
- amount (percentage of initial amount) [2]: 104.2%
- amount (percentage of initial amount) [3]: 96.1%
- amount (percentage of initial amount) [4]: 100.1%
Compound: Gentamicin

- amount (percentage of initial amount) (in Example 22 solution (2.5% fructose), pH 6.0, room temperature, 0 h): 92.40%
- amount (percentage of initial amount) (in Example 22 solution (2.5% fructose), pH 6.0, room temperature, 1 h): 98.91%
- amount (percentage of initial amount) (in Example 22 solution (2.5% fructose), pH 6.0, room temperature, 2 h): 104.0%
- amount (percentage of initial amount) (in Example 22 solution (2.5% fructose), pH 6.0, room temperature, 4 h): 98.91%
- amount (percentage of initial amount) (in Example 22 solution (2.5% fructose), pH 6.0, room temperature, 6 h): 99.03%
- amount (percentage of initial amount) (in Example 22 solution (2.5% fructose), pH 6.0, room temperature, 8 h): 85.02%
Compound: CC1(C)S[C@@H]2[C@H](NC(=O)[C@H](NC(=O)N3CCNC3=O)c3ccccc3)C(=O)N2[C@H]1C(=O)O [Azlocillin sodium]
